These molecules were tested against T1, Androgen Receptor dual T878A/L702H mutant protein (Homo sapiens, UniProt P10275, L702H/T878A) (assay: Dual Mutant (T878A/L702H) Androgen Receptor Degradation Assay (HTRF, MDA-PCa-2b cells)). Conditions: 18 h, 18 h incubation, read-out: mean asymptote max.
T1 construct: host or cells: MDA-PCa-2b
T1 sequence (P10275 1-920 L702H/T878A): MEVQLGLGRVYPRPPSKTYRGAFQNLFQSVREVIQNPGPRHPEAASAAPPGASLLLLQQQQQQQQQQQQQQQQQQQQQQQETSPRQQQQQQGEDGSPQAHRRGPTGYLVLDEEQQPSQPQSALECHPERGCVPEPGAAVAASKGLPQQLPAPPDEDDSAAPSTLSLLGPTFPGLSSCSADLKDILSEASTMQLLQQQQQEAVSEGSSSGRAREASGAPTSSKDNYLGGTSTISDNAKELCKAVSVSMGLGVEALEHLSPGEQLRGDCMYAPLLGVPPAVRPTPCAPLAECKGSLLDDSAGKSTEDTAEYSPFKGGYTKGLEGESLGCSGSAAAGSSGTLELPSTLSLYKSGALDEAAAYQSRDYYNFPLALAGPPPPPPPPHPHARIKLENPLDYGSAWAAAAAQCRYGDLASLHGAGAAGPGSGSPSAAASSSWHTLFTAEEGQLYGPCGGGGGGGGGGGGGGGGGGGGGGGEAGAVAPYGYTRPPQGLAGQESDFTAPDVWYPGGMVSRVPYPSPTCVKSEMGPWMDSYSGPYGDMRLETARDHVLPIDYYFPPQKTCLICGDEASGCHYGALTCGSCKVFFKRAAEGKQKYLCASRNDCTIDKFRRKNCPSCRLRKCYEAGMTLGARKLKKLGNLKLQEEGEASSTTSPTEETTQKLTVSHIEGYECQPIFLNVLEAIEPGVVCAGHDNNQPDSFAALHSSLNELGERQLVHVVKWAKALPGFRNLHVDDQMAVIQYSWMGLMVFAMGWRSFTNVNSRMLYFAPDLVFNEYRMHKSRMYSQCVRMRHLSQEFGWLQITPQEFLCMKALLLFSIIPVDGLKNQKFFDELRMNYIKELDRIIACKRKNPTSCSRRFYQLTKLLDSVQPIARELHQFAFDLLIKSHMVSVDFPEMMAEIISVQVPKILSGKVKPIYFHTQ
Format: cell-based
Description: Degradation of Androgen Receptor dual T878A/L702H mutant protein in human MDA-PCa-2b (ATCC) cells treated with PROTACs was quantified using the HTRF Human Androgen Receptor Detection Kit (PerkinElmer) in 384 well assay plate format. 10 mM DMSO (Sigma-Aldrich) stock solutions of PROTACs were prepared and diluted across an 11 concentration, 3-fold increment range, and 25 nL dispensed into a white opaque bottomed 384 well assay plate (Thermofisher) using an acoustic ECHO dispenser (Labcyte). Cells were cultured in growth medium (BRFF—HPC-1 (Athena ES) supplemented with 20% FBS (Gibco), penicillin 50U/mL and streptomycin 50 μg/mL (Gibco, #15140-122)) in collagen I or poly-D-lysine coated T175 flasks (Corning, #356487 or #356539, respectively). For the assay, cells were harvested from the flask, centrifuged at 200 g for 5 min and then resuspended in the growth medium. 25 μl of cell suspension containing 10,000 cells was dispensed into each well of the assay plate containing the test compounds, which was then incubated for 18 h at 37° C./5% CO2. Control wells were included on each assay plate, with assay medium without cells being the no AR remaining 100% effect control, and cells treated with DMSO vehicle only, without PROTAC, the 0% effect control. After 18 h incubation 8 μl of supplemented lysis buffer from HTRF kit was added to each well and the plate shaken at 500 rpm for 1 h at room temperature. 8 μl of antibody mix in Detection buffer from HTRF kit was added to each well and the plate was incubated for 2 h in dark at mom temperature. The fluorescence was measured at both 620 nm and 665 nm using an excitation wavelength of 337 nm with a PHERAstar microplate reader (BMG Labtech) and the % AR protein remaining in each well was calculated by normalising the HTRF ratio (665 nm signal/620 nm signal) value to the control wells mentioned above. Parameters corresponding to the potency and efficacy estimates of the PROTACs were obtained from these normalised values using curve fitting software (IDBS ActivityBase). These included the DC50 and the Dmax estimates. Two versions of the DC50, called relative DC50 and absolute DC50, were typically generated. These are the inflection point of a fitted 4 parameter sigmoidal response curve and the interpolated concentration of PROTAC corresponding to 50% of the protein being degraded, respectively. The Dmax parameter was the maximum experimentally observed degradation and the asymptote max parameter the fitted response curve asymptote maximum.

| Dmax | Structure (SMILES) |
| --- | --- |
| ≥ 50% | CC1(C)[C@H](NC(=O)c2ccc(N3CCC(CN4CCC(n5ncc6c(N7CCC(=O)NC7=O)cccc65)CC4)CC3)c(F)c2)C(C)(C)[C@H]1Oc1cnc(C#N)c(Cl)c1 [Example 3, N-((1r,3r)-3-((5-Chloro-6-cyanopyridin-3-yl)oxy)-2,2,4,4-tetramethylcyclobutyl)-4-(4-((4-(4-(2,4-dioxotetrahydropyrimidin-1(2H)-yl)-1H-indazol-1-yl)piperidin-1-yl)methyl)piperidin-1-yl)-3-fluorobenzamide] |
| ≥ 50% | COc1cc(O[C@H]2C(C)(C)[C@H](NC(=O)c3ccc(N4CCC(CN5CC[C@@H](n6ncc7c(N8CCC(=O)NC8=O)cccc76)[C@@H](F)C5)CC4)c(F)c3)C2(C)C)ccc1C#N [Example 27, N-((1r,3r)-3-(4-Cyano-3-methoxyphenoxy)-2,2,4,4-tetramethylcyclobutyl)-4-(4-(((3,4R)-4-(4-(2,4-dioxotetrahydropyrimidin-1(2H)-yl)-1H-indazol-1-yl)-3-fluoropiperidin-1-yl)methyl)piperidin-1-yl)-3-fluorobenzamide] |
| ≥ 50% | CC1(C)[C@H](NC(=O)c2ccc(N3CCC(CN4CCC(n5ccc6c(N7CCC(=O)NC7=O)ncnc65)CC4)CC3)cc2)C(C)(C)[C@H]1Oc1ccc(C#N)c2ncccc12 [Example 28, N-((1r,3r)-3-((8-Cyanoquinolin-5-yl)oxy)-2,2,4,4-tetramethylcyclobutyl)-4-(4-((4-(4-(2,4-dioxotetrahydropyrimidin-1(2H)-yl)-7H-pyrrolo[2,3-d]pyrimidin-7-yl)piperidin-1-yl)methyl)piperidin-1-yl)benzamide] |
| ≥ 50% | CC1(C)[C@H](NC(=O)c2ccc(N3CC[C@@H](CN4CCC(n5ncc6c(N7CCC(=O)NC7=O)cccc65)CC4)C3)c(F)c2)C(C)(C)[C@H]1Oc1ccc(C#N)c2ncccc12 [Example 33, N-((1r,3S)-3-((8-Cyanoquinolin-5-yl)oxy)-2,2,4,4-tetramethylcyclobutyl)-4-((S)-3-((4-(4-(2,4-dioxotetrahydropyrimidin-1(2H)-yl)-1H-indazol-1-yl)piperidin-1-yl)methyl)pyrrolidin-1-yl)-3-fluorobenzamide] |
| ≥ 50% | CC1(C)[C@H](NC(=O)c2ccc(N3CC[C@H](CN4CCC(n5ncc6c(N7CCC(=O)NC7=O)cccc65)CC4)C3)c(F)c2)C(C)(C)[C@H]1Oc1ccc(C#N)c2ncccc12 [Example 34, N-((1r,3R)-3-((8-Cyanoquinolin-5-yl)oxy)-2,2,4,4-tetramethylcyclobutyl)-4-((R)-3-((4-(4-(2,4-dioxotetrahydropyrimidin-1(2H)-yl)-1H-indazol-1-yl)piperidin-1-yl)methyl)pyrrolidin-1-yl)-3-fluorobenzamide] |

Further lines, the molecule ahead of its results:

| Structure (SMILES) | Dmax |
| --- | --- |
| COc1c(C#N)ccc(O[C@H]2C(C)(C)[C@H](NC(=O)c3ccc(N4CCC(CN5CCC(n6ncc7c(N8CCC(=O)NC8=O)cccc76)CC5)CC4)c(F)c3)C2(C)C)c1C [Example 5, N-((1r,3r)-3-(4-Cyano-3-methoxy-2-methylphenoxy)-2,2,4,4-tetramethylcyclobutyl)-4-(4-((4-(4-(2,4-dioxotetrahydropyrimidin-1(2H)-yl)-1H-indazol-1-yl)piperidin-1-yl)methyl)piperidin-1-yl)-3-fluorobenzamide] | ≥ 50% |
| CC1(C)[C@H](NC(=O)c2ccc(N3CCC(CN4CCC(n5ncc6c(N7CCC(=O)NC7=O)cccc65)CC4)CC3)c(F)c2)C(C)(C)[C@H]1Oc1ccc(C#N)c2ncccc12 [Example 6, N-((1r,3r)-3-((8-Cyanoquinolin-5-yl)oxy)-2,2,4,4-tetramethylcyclobutyl)-4-(4-((4-(4-(2,4-dioxotetrahydropyrimidin-1(2H)-yl)-1H-indazol-1-yl)piperidin-1-yl)methyl)piperidin-1-yl)-3-fluorobenzamide] | ≥ 50% |
| CC1(C)[C@H](NC(=O)c2ccc(N3CCC(CN4CCC(n5ncc6c(N7CCC(=O)NC7=O)cccc65)CC4)CC3)c(F)c2)C(C)(C)[C@H]1Oc1ccc(C#N)c2c1CCCO2 [Example 8, N-((1r,3r)-3-((8-Cyanochroman-5-yl)oxy)-2,2,4,4-tetramethylcyclobutyl)-4-(4-((4-(4-(2,4-dioxotetrahydropyrimidin-1(2H)-yl)-1H-indazol-1-yl)piperidin-1-yl)methyl)piperidin-1-yl)-3-fluorobenzamide] | ≥ 50% |
| CC1(C)[C@H](NC(=O)c2ccc(N3CCC(CN4CCC(n5ncc6c(N7CCC(=O)NC7=O)c(F)ccc65)CC4)CC3)c(F)c2)C(C)(C)[C@H]1Oc1ccc(C#N)c(Cl)c1 [Example 13, N-((1r,3r)-3-(3-Chloro-4-cyanophenoxy)-2,2,4,4-tetramethylcyclobutyl)-4-(4-((4-(4-(2,4-dioxotetrahydropyrimidin-1(2H)-yl)-5-fluoro-1H-indazol-1-yl)piperidin-1-yl)methyl)piperidin-1-yl)-3-fluorobenzamide] | ≥ 50% |
| COc1cc(O[C@H]2C(C)(C)[C@H](NC(=O)c3ccc(N4CCC(CN5CCC(n6ncc7c(N8CCC(=O)NC8=O)cccc76)CC5)CC4)cc3)C2(C)C)ccc1C#N [Example 15, N-((1r,3r)-3-(4-Cyano-3-methoxyphenoxy)-2,2,4,4-tetramethylcyclobutyl)-4-(4-((4-(4-(2,4-dioxotetrahydropyrimidin-1(2H)-yl)-1H-indazol-1-yl)piperidin-1-yl)methyl)piperidin-1-yl)benzamide] | ≥ 50% |
| COc1cc(O[C@H]2C(C)(C)[C@H](NC(=O)c3ccc(N4CCC(CN5CCC(n6ccc7c(N8CCC(=O)NC8=O)cccc76)CC5)CC4)cc3)C2(C)C)ccc1C#N [Example 16, N-((1r,3r)-3-(4-Cyano-3-methoxyphenoxy)-2,2,4,4-tetramethylcyclobutyl)-4-(4-((4-(4-(2,4-dioxotetrahydropyrimidin-1(2H)-yl)-1H-indol-1-yl)piperidin-1-yl)methyl)piperidin-1-yl)benzamide] | ≥ 50% |
| CC1(C)[C@H](NC(=O)c2ccc(N3CCC(CN4CCC(n5ccc6c(N7CCC(=O)NC7=O)cccc65)CC4)CC3)c(F)c2)C(C)(C)[C@H]1Oc1ccc(C#N)c2ncccc12 [Example 31, N-((1r,3r)-3-((8-Cyanoquinolin-5-yl)oxy)-2,2,4,4-tetramethylcyclobutyl)-4-(4-((4-(4-(2,4-dioxotetrahydropyrimidin-1(2H)-yl)-1H-indol-1-yl)piperidin-1-yl)methyl)piperidin-1-yl)-3-fluorobenzamide] | ≥ 50% |
| CC1(C)[C@H](NC(=O)c2ccc(N3CCC(CN4CCC(n5ccc6c(N7CCC(=O)NC7=O)cc(F)cc65)CC4)CC3)c(F)c2)C(C)(C)[C@H]1Oc1ccc(C#N)c2ncccc12 [Example 32, N-((1r,3r)-3-((8-Cyanoquinolin-5-yl)oxy)-2,2,4,4-tetramethylcyclobutyl)-4-(4-((4-(4-(2,4-dioxotetrahydropyrimidin-1(2H)-yl)-6-fluoro-1H-indol-1-yl)piperidin-1-yl)methyl)piperidin-1-yl)-3-fluorobenzamide] | ≥ 50% |
